According to patent publication US3955959A, “Herbicide for use in transplanted rice” (priority 1974, dated 1976):

Columns and labels:
[1] = tested on: weeds in rice fields; conditions: prior art; cited from earlier work
[2] = tested on: transplanted rice seedlings; experiment: Example 6 rice seedling injury; type: in vivo
Method: (§1) In this example, the efficacy of Herbicide A is presented for a variety of weeds in the presence of ordinary and infant transplant rice. In this example, tests were conducted at the said JAAPR Lab at different times of the year. "Early season" transplants were made in April and "Normal season" transplants were made in July. The size of the transplants at the respective seasons were: Season Seedling Type Plant Height (cm) Leaf Stage ______________________________________ Early Ordinary 16.5 4.5 Early Infant 9.1 2.4 Normal Ordinary 41.7 5.3 Normal Infant 14.7 1.9 ______________________________________
(§2) Duplicate treatments were used. At the time of application of the herbicide, the status of the grass (EC) was as follows: […]

[3] = tested on: Cyperus difformis, Cyperus iria, Cyperus serotinus, Eleocharis acicularis, Eleocharis kuroguwai, Fimbristylis spp, Scirpus hotarui and Scirpus spp; experiment: Weeds effectively treated to date: sedges; type: in vivo
[4] = tested on: Cc (Commelina communis); experiment: Example 7 greenhouse preemergence activity; type: in vivo
Method: In a further comparative study of the preemergence activity of Herbicides A and B, a variety of weeds and upland direct-seeded rice were tested under greenhouse conditions. The present invention is not concerned with the use of Herbicide A in direct-seeded rice. The primary purpose of the experimental work in this example is to compare relative herbicidal activity of Herbicides A and B against the weeds shown in Table 7; most of these weeds were not available for tests with transplanted rice. Although the relative selectivity of these herbicides in upland rice is also evident, that aspect of the tests is more or less incidental to the purpose of this example.
In this example, rice seeds and seeds of the weeds shown in Table 7 were sown in Ray silt loam soil at a depth of 0.5 inch (1.27 cm) in containers for the soil in a greenhouse. Herbicides A and B were applied to the surface of the soil at a spray volume equivalent to 20 gals/acre (187.1 liters/hectare), followed by 0.5 in (1.27 cm) of overhead irrigation. Temperature and relative humidity in the greenhouse were on the order of 85°F (29°C) and 75%, respectively. Observations were made at 21-28 days after seeding.
In Table 7 are shown the average rates of herbicide required to cause a growth reduction of 85% of the weeds ("GR85 "), and the average rate of herbicide required to cause a growth reduction of 15% ("GR15 ") of the rice plants (Oryza sativa, "Os", variety Bluebelle).

[5] = tested on: carp; experiment: Example 10 fish toxicity, Japanese protocol; type: in vivo
Method: In view of the importance of fish toxicological considerations, tests were conducted, using carp according to the Japanese protocol, to compare toxicity data for Herbicides A and B; results of those tests are shown in Table 10.

[6] = tested on: direct-seeded rice plants; conditions: 1.0 lb/ac and 0.25 lb/ac; '620 and '945 Table I; cited from earlier work
[7] = tested on: Ammannia spp, Amaranthus retroflexus, Elatine triandra, Jussiaea decurrens, Lindernia pyxidaria, Rotala Sphenoclea zeylanica and Partulaca oleracea; experiment: Weeds effectively treated to date: dicotyledonous broadleaf weeds; type: in vivo
[8] = tested on: Sa (Sagittaria aginashi); experiment: Other tests, perennial control; type: in vivo
[9] = tested on: Echinochloa crusgalli and Monochoria vaginalis; experiment: Example 2 field test, overall; type: in vivo
Text: Rice seedlings (ordinary) of Tainan No. 5 variety (japonica) were transplanted at 19 days of growth. Granular formulations of Herbicides A and B were applied at the 1 leaf stage of grass weed (4 DAT) and 2.5 leaf stage of grass weed (10 DAT).

[10] = tested on: Ea (Eleocharis acicularis); experiment: Example 6 weed control, JAAPR, Japan; type: in vivo
Method: as §1, §2

[11] = tested on: Cs (Cyperus serotinus); experiment: Example 6 weed control, JAAPR, Japan; type: in vivo; conditions: Normal season
Method: as §1, §2

[12] = tested on: Ec (Echinochloa crusgalli); experiment: Example 8 residual weed control, JAAPR, Japan; type: in vivo; conditions: Table 8 (Ec and Ri)
Method: This example describes the results of tests conducted at the JAAPR Laboratory in Japan to determine the comparative residual effect of Herbicide A vis-a-vis that of commercial rice herbicides in Japan.
In the tests according to this example, the test weed species Echinochloa crusgalli (Ec) and Rotala indica (Ri), were grown in clay loam soil having 2.3% organic matter and a percolation rate of 3 cm/day for 2 days. Herbicide A was applied to the weeds at an expected use rate of about 0.67-1.34 lbs/ac (0.75-1.5 kgs/ha) and the commercial rice herbicides, whose active ingredients are identified below, were applied at their indicated expected use rates: […]

[13] = Early season, ordinary, 1.0 kg/ha, 3 DAT
[14] = Early season, ordinary, 1.0 kg/ha, 12 DAT
[15] = Early season, ordinary, 1.0 kg/ha, -2 DAT
[16] = Early season, ordinary, .5 kg/ha, 3 DAT
[17] = Early season, ordinary, .5 kg/ha, 12 DAT
[18] = Early season, ordinary, .5 kg/ha, -2 DAT
[19] = Normal season, infant, 1.0 kg/ha, 3 DAT
[20] = Normal season, infant, 1.0 kg/ha, 7 DAT
[21] = Normal season, infant, 1.0 kg/ha, -2 DAT
[22] = Normal season, infant, .5 kg/ha, 3 DAT
[23] = Normal season, infant, .5 kg/ha, 7 DAT
[24] = Normal season, infant, .5 kg/ha, -2 DAT
[25] = Normal season, ordinary, 1.0 kg/ha, 3 DAT
[26] = Normal season, ordinary, 1.0 kg/ha, 7 DAT
[27] = Normal season, ordinary, 1.0 kg/ha, -2 DAT
[28] = Normal season, ordinary, .5 kg/ha, 3 DAT
[29] = Normal season, ordinary, .5 kg/ha, 7 DAT
[30] = Normal season, ordinary, .5 kg/ha, -2 DAT

## CCCCOCN(C(=O)CCl)c1c(CC)cccc1CC [Herbicide B, n-(butoxymethyl)-2',6'-diethyl-2-chloroacetanilide, reference compound]
[1]
  period of application: only brief periods of application

## CCCCOCN(C(=O)CCl)c1c(C)cccc1C(C)(C)C [Herbicide A, n-(butoxymethyl)-6'-tert-butyl-2-chloro-o-acetotoluidide]
[2]; [13]
  Rice Seedling Injury (%): 5%
[2]; [14]
  Rice Seedling Injury (%): 0%
[2]; [15]
  Rice Seedling Injury (%): 10%
[2]; [16]
  Rice Seedling Injury (%): 0%
[2]; [17]
  Rice Seedling Injury (%): 0%
[2]; [18]
  Rice Seedling Injury (%): 10%
[2]; [19]
  Rice Seedling Injury (%): 20%
[2]; [20]
  Rice Seedling Injury (%): 10%
[2]; [21]
  Rice Seedling Injury (%): 40%
[2]; [22]
  Rice Seedling Injury (%): 15%
[2]; [23]
  Rice Seedling Injury (%): 10%
[2]; [24]
  Rice Seedling Injury (%): 20%
[2]; [25]
  Rice Seedling Injury (%): 15%
[2]; [26]
  Rice Seedling Injury (%): 10%
[2]; [27]
  Rice Seedling Injury (%): 30%
[2]; [28]
  Rice Seedling Injury (%): 15%
[2]; [29]
  Rice Seedling Injury (%): 5%
[2]; [30]
  Rice Seedling Injury (%): 25%
[2]; infant vs ordinary
  rice toxicity, infant vs ordinary seedlings: No difference
[2]; preemergence treatments vs later
  rice toxicity, preemergence vs later treatments: somewhat more toxic to rice
[3]
  effectively treated sedges: effectively treated
[4]
  resistance of Cc: resistant
[5]; equal concentration basis
  toxicity to carp relative to Herbicide B: about one-half
[5]; taking expected use rate one-third of B
  toxicity in the field relative to Herbicide B: about one-sixth
[6]
  phytotoxicity to direct-seeded rice: severe phytotoxicity
[7]
  effectively treated dicotyledonous broadleaf weeds: effectively treated
[8]
  activity against Sa: generally weak
[9]; Example 2
  period of application vs Herbicide B: could be applied over a longer period of time
[9]; control of Echinochloa crusgalli and Monochoria vaginalis
  fold more active than Herbicide B: 3-6 fold
[10]; [13]
  % Weed Control (Ea): 100%
[10]; [14]
  % Weed Control (Ea): 100%
[10]; [15]
  % Weed Control (Ea): 100%
[10]; [16]
  % Weed Control (Ea): 100%
[10]; [17]
  % Weed Control (Ea): 100%
[10]; [18]
  % Weed Control (Ea): 100%
[10]; [19]
  % Weed Control (Ea): 100%
[10]; [20]
  % Weed Control (Ea): 100%
[10]; [21]
  % Weed Control (Ea): 100%
[10]; [22]
  % Weed Control (Ea): 100%
[10]; [23]
  % Weed Control (Ea): 100%
[10]; [24]
  % Weed Control (Ea): 100%
[10]; [25]
  % Weed Control (Ea): 100%
[10]; [26]
  % Weed Control (Ea): 100%
[10]; [27]
  % Weed Control (Ea): 100%
[10]; [28]
  % Weed Control (Ea): 100%
[10]; [29]
  % Weed Control (Ea): 100%
[10]; [30]
  % Weed Control (Ea): 100%
[11]; infant, 1.0 kg/ha, 3 DAT
  % Weed Control (Cs): 100%
[11]; infant, 1.0 kg/ha, 7 DAT
  % Weed Control (Cs): 100%
[11]; infant, 1.0 kg/ha, -2 DAT
  % Weed Control (Cs): 100%
[11]; infant, .5 kg/ha, 3 DAT
  % Weed Control (Cs): 100%
[11]; infant, .5 kg/ha, 7 DAT
  % Weed Control (Cs): 100%
[11]; infant, .5 kg/ha, -2 DAT
  % Weed Control (Cs): 100%
[11]; ordinary, 1.0 kg/ha, 3 DAT
  % Weed Control (Cs): 100%
[11]; ordinary, 1.0 kg/ha, 7 DAT
  % Weed Control (Cs): 100%
[11]; ordinary, 1.0 kg/ha, -2 DAT
  % Weed Control (Cs): 100%
[11]; ordinary, .5 kg/ha, 3 DAT
  % Weed Control (Cs): 100%
[11]; ordinary, .5 kg/ha, 7 DAT
  % Weed Control (Cs): 100%
[11]; ordinary, .5 kg/ha, -2 DAT
  % Weed Control (Cs): 100%
[12]
  residual activity: over 30 days
